# Measured values as given in patent publication US9969698B2, “Quinoxalinyl-piperazinamide methods of use” (REXAHN PHARMACEUTICALS, INC., priority 2015, dated 2018).
# Where “and” joins values, the source holds several entries; their conditions need not be identical. Identical values can stand only once. Like-named read-outs stand apart in the source and are kept apart here.
# Test: Human pharmacokinetics, dose-ranging study
# Type: in vivo
# Procedure: In a dose-ranging study, the pharmacokinetics (PK), safety and tolerability of RX-5902 at various oral doses were evaluated. Subjects with advanced or metastatic solid tumors were administered capsules containing RX-5902 at daily doses of 25-775 mg once weekly, 250-300 mg three times a week, 150-300 mg five times a week, or 300-350 mg seven times a week of RX-5902 for up to 6 dosing cycles. Each cycle consisting of 1-5 doses of RX-5902 per week for 3 weeks followed by 1 week of rest, or 5-7 doses of RX-5902 per week for 4 weeks without any rest per 4-week cycle. All but one subject had fasted from food for at least 8 hours before administration. One subject received 300 mg RX-5902 in fed state. Plasma concentrations were measured on Days 1 and 15, for 48 hrs, using a validated LC-MS/MS assay, and noncompartmental pharmacokinetic parameters were calculated using Phoenix WinNonlin, Version 6.4.
# Preliminary PK data after a single administration is presented in FIG. 1 (for Subjects #1-11) and Table 3.
# [1] = oral capsule, 300 mg, 1 per week, Day 1, fasted
# [2] = oral capsule, 300 mg, 5 per week, Day 1, fasted
# [3] = oral capsule, 775 mg, 1 per week, Day 1, fasted
smiles,measurement,setting,value
"COc1cc(OC)cc(N2CCN(C(=O)Nc3nc4cc(F)ccc4nc3OC)CC2)c1 [RX-5902, 4-(3,5-dimethoxyphenyl)-N-(7-fluoro-3-methoxyquinoxalin-2-yl)piperazine-1-carboxamide]",AUC(0-t),"human, plasma, po, 300 mg, oral capsule, 300 mg, 1 per week, Day 1, fed, read-out: AUC0-24",8620 ng·h/mL
same,AUC(0-t),"human, plasma, po, 300 mg, oral capsule, 300 mg, 1 per week, Day 1, fed, read-out: AUC0-48",10700 ng·h/mL
same,Cmax,"human, plasma, po, 300 mg, oral capsule, 300 mg, 1 per week, Day 1, fed, read-out: Cmax",779 ng/mL
same,half-life,"human, plasma, po, 300 mg, oral capsule, 300 mg, 1 per week, Day 1, fed, read-out: T1/2 (converted)",11.9 h
same,Tmax,"human, plasma, po, 300 mg, oral capsule, 300 mg, 1 per week, Day 1, fed, read-out: Tmax",4 h
same,AUC(0-t),"human, plasma, po, 300 mg, oral capsule, 300 mg, 3 per week, Day 1, fasted, read-out: AUC0-24",3850 ng·h/mL
same,AUC(0-t),"human, plasma, po, 300 mg, oral capsule, 300 mg, 3 per week, Day 1, fasted, read-out: AUC0-48",4560 ng·h/mL
same,Cmax,"human, plasma, po, 300 mg, oral capsule, 300 mg, 3 per week, Day 1, fasted, read-out: Cmax",288 ng/mL
same,half-life,"human, plasma, po, 300 mg, oral capsule, 300 mg, 3 per week, Day 1, fasted, read-out: T1/2 (converted)",10.3 h
same,Tmax,"human, plasma, po, 300 mg, oral capsule, 300 mg, 3 per week, Day 1, fasted, read-out: Tmax",6 h
same,AUC(0-t),"human, plasma, po, 300 mg, oral capsule, 300 mg, 3 per week, Day 15, fasted, read-out: AUC0-24",3050 ng·h/mL
same,AUC(0-t),"human, plasma, po, 300 mg, oral capsule, 300 mg, 3 per week, Day 15, fasted, read-out: AUC0-48",4140 ng·h/mL
same,Cmax,"human, plasma, po, 300 mg, oral capsule, 300 mg, 3 per week, Day 15, fasted, read-out: Cmax",301 ng/mL
same,Tmax,"human, plasma, po, 300 mg, oral capsule, 300 mg, 3 per week, Day 15, fasted, read-out: Tmax",2 h
same,AUC(0-t),"human, plasma, po, 300 mg, oral capsule, 300 mg, 5 per week, Day 1, fasted, read-out: AUC0-24",3800 ng·h/mL
same,Cmax,"human, plasma, po, 300 mg, oral capsule, 300 mg, 5 per week, Day 1, fasted, read-out: Cmax",317 ng/mL
same,AUC(0-t),"human, plasma, po, 300 mg, oral capsule, 300 mg, 5 per week, Day 15, fasted, read-out: AUC0-24",3840 ng·h/mL
same,Tmax,"human, plasma, po, 300 mg, oral capsule, 300 mg, 5 per week, Day 15, fasted, read-out: Tmax",1.5 h
same,AUC(0-t),"human, plasma, po, 300 mg, oral capsule, 300 mg, 7 per week, Day 1, fasted, read-out: AUC0-24",2990 ng·h/mL
same,AUC(0-t),"human, plasma, po, 300 mg, oral capsule, 300 mg, 7 per week, Day 1, fasted, read-out: AUC0-48",3180 ng·h/mL
same,Cmax,"human, plasma, po, 300 mg, oral capsule, 300 mg, 7 per week, Day 15, fasted, read-out: Cmax",1250 ng/mL
same,Tmax,"human, plasma, po, 300 mg, oral capsule, 300 mg, 7 per week, Day 15, fasted, read-out: Tmax",6 h
same,AUC(0-t),"human, plasma, po, 350 mg, oral capsule, 350 mg, 7 per week, Day 1, fasted, read-out: AUC0-24",4820 ng·h/mL
same,AUC(0-t),"human, plasma, po, 350 mg, oral capsule, 350 mg, 7 per week, Day 1, fasted, read-out: AUC0-48",4960 ng·h/mL
same,Cmax,"human, plasma, po, 350 mg, oral capsule, 350 mg, 7 per week, Day 1, fasted, read-out: Cmax",750 ng/mL
same,Tmax,"human, plasma, po, 350 mg, oral capsule, 350 mg, 7 per week, Day 1, fasted, read-out: Tmax",1.5 h
same,AUC(0-t),"human, plasma, po, 425 mg, oral capsule, 425 mg, 1 per week, Day 1, fasted, read-out: AUC0-24",9320 ng·h/mL
same,AUC(0-t),"human, plasma, po, 425 mg, oral capsule, 425 mg, 1 per week, Day 1, fasted, read-out: AUC0-48",14700 ng·h/mL
same,Cmax,"human, plasma, po, 425 mg, oral capsule, 425 mg, 1 per week, Day 1, fasted, read-out: Cmax",660 ng/mL
same,Tmax,"human, plasma, po, 425 mg, oral capsule, 425 mg, 1 per week, Day 1, fasted, read-out: Tmax",2 h
same,AUC(0-t),"human, plasma, po, 575 mg, oral capsule, 575 mg, 1 per week, Day 1, fasted, read-out: AUC0-24",6820 ng·h/mL
same,AUC(0-t),"human, plasma, po, 575 mg, oral capsule, 575 mg, 1 per week, Day 1, fasted, read-out: AUC0-48",10100 ng·h/mL
same,Cmax,"human, plasma, po, 575 mg, oral capsule, 575 mg, 1 per week, Day 1, fasted, read-out: Cmax",707 ng/mL
same,Tmax,"human, plasma, po, 575 mg, oral capsule, 575 mg, 1 per week, Day 1, fasted, read-out: Tmax",4 h
same,AUC(0-t),"human, plasma, po, 775 mg, oral capsule, 775 mg, 1 per week, Day 1, fasted, read-out: AUC0-24",3540 ng·h/mL
same,AUC(0-t),"human, plasma, po, 775 mg, oral capsule, 775 mg, 1 per week, Day 1, fasted, read-out: AUC0-48",5010 ng·h/mL
same,Cmax,"human, plasma, po, 775 mg, oral capsule, 775 mg, 1 per week, Day 1, fasted, read-out: Cmax",487 ng/mL
same,half-life,"human, plasma, po, 775 mg, oral capsule, 775 mg, 1 per week, Day 1, fasted, read-out: T1/2 (converted)",9.7 h
same,Tmax,"human, plasma, po, oral capsules, all subjects, after dosing, read-out: Tmax, observed range",1 to 6 h
same,half-life,"human, plasma, po, oral capsules, all subjects, read-out: Apparent terminal T1/2, mean value (converted)",13 h
same,half-life,"human, plasma, po, oral capsules, all subjects, read-out: Apparent terminal T1/2, range",5.8 to 27.6 h
same,AUC0-24,[1],4170 ng·h/mL
same,AUC0-48,[1],5552 ng·h/mL
same,Cmax,[1],452 ng/mL
same,T1/2,[1],15.6 h
same,AUC0-24,[2],4607 ng·h/mL and 3855 ng·h/mL
same,Cmax,[2],549 ng/mL and 419 ng/mL and 624 ng/mL
same,AUC0-24,"oral capsule, 300 mg, 5 per week, Day 15, fasted",4878 ng·h/mL
same,AUC0-24,[3],6925 ng·h/mL
same,AUC0-48,[3],8126 ng·h/mL
same,Cmax,[3],654 ng/mL
same,"apparent, short lag time","oral capsules, sometimes displayed",0.25 h
same,share of AUC0-t (0-48 hours) observed by 24 hours,"oral capsules, usually",over 75%
